Measurements from PubChem BioAssay AID2060503 (Molecular Pharmacology Branch, DTP, NCI, 2025).

Test system: 817829-284-R-J1-PDC complex spheroids, viability
Test: Anticancer human tumor 817829-284-R-J1-PDC patient-derived colon adenocarcinoma cell line growth inhibition [GQUAD]
Conditions: for IC50: curve of first compound; for viability, T/C: stronger effect = lower value
Text: DNA G-quadruplex Stabilizer Agents in Combinations in Complex Spheroids
A high-throughput screen of multi-cell type tumor spheroids was designed to identify active combinations of DNA G-quadruplex stabilizer agents and targeted small molecules. Complex spheroids include a stromal component modeled by human endothelial cells (HUVEC) and fibroblasts modeled by human mesenchymal stem cells (MSCs). The concentration ranges selected for each drug and investigational agent were based upon clinically achievable concentrations if the clinical Cmax of the agent was known.
Compounds. The drugs and investigational agents: pidnarulex (CX-5461; NSC782164), APTO-253 (NSC789042), BRACO-19 (NSC847499), peposertib (NSC802822), ceralasertib (NSC780249), elimusertib (NSC800525), camonsertib (NSC841442), AZD-1390 (NSC803789), olaparib (NSC753686), talazoparib (NSC767125), ART-558 (NSC835418), sotorasib (NSC818433), MRTX-1133 (NSC836407), SN-38 (NSC673596), topotecan (NSC609699), etoposide (NSC141540), doxorubicin (NSC123127), gemcitabine (NSC613327), 5-fluorouracil (NSC19893), paclitaxel (NSC125973), vemurafenib (NSC761431), panobinostat (NSC761190), R-306465 (JNJ-16241199; NSC773264), adavosertib (NSC754352), TP-3654 (NSC805149), carboplatin (NSC241240), KSQ-4279 (NSC840948), and staurosporine (NSC755774) were obtained from the National Cancer Institute (NCI) Developmental Therapeutics Program Chemical Repository (34). The FDA-approved anticancer drug set is available from the NCI Developmental Therapeutics Program. […] The stock solutions were prepared in dimethyl sulfoxide (DMSO, Sigma-Aldrich, St. Louis, MO, cat. D2650) at 800-fold the tested concentration and stored at -70 degrees C prior to their use. All drugs and investigational agents were tested over a range starting from a high concentration at or near the clinical Cmax and decreasing in half-log increments. If the clinical Cmax for an agent had not been determined, the highest concentration tested was 10 microM.
2.3 Cell Culture. All cells were maintained in an incubator at 37 degrees C and 5% CO2 with 95% humidity. The PDC lines were cultured according to standard operating procedures established by the NCI PDMR. All PDCs were thawed and cultured in Matrigel-coated flasks prepared with a working solution of 1X Ham's F-12 nutrient mix, without supplementation (Invitrogen, cat. 11765054), 100 U/mL penicillin-streptomycin (Invitrogen, cat. 15140122), and 2.5% Matrigel (Corning Inc., cat. 354248) for the first three passages. The 857933-349-R-J2-PDC line was cultured in 6C/Colon 1B media, which includes advanced DMEM/F-12 (Thermo Fisher Scientific, cat. 12634028), 10 mM HEPES (Thermo Fisher Scientific, cat. 15630080), 1X GlutaMAX supplement (Thermo Fisher Scientific, cat. 35050061), 0.1 mg/mL primocin (InvivoGen, cat. ant-pm-2), 10% defined fetal bovine serum, heat inactivated (HyClone Laboratories Inc., cat. SH30070.03HI), 50% L-WRN conditioned media (ATCC, cat. CRL-3276), 1.25 mM N-Acetyl-L-cysteine (Sigma-Aldrich, cat. A9165), 10 mM nicotinamide (Sigma-Aldrich, cat. N0636), 1X B-27 supplement (Thermo Fisher Scientific, cat. 17504044), 1X N-2 supplement (Thermo Fisher Scientific, cat. 17502048), 10 microM Y-27632 dihydrochloride (Tocris Bioscience, cat. 1254), and 50 ng/mL human EGF recombinant protein (Thermo Fisher Scientific, cat. PHG0311). The 485176-168-R4-J1-PDC line was cultured in Panc media, which includes all 6C/Colon 1B media components plus 100 ng/mL human FGF-10 (Thermo Fisher Scientific, cat. 100-26), 500 nM SB-431542 (Selleckchem, cat. S1067), and gastrin (Tocris, cat. 3006).
[…]

[1] = second compound 0.0316 µM, first compound 0.000999 µM
[2] = second compound 0.0316 µM, first compound 0.00316 µM
[3] = second compound 0.0316 µM, first compound 0.00999 µM
[4] = second compound 0.0316 µM, first compound 0.0316 µM
[5] = second compound 0.0316 µM, first compound 0.0999 µM
[6] = second compound 0.0316 µM, first compound 0.316 µM
[7] = second compound 0.1 µM, first compound 0.000999 µM
[8] = second compound 0.1 µM, first compound 0.00316 µM
[9] = second compound 0.1 µM, first compound 0.00999 µM
[10] = second compound 0.1 µM, first compound 0.0316 µM
[11] = second compound 0.1 µM, first compound 0.0999 µM
[12] = second compound 0.1 µM, first compound 0.316 µM
[13] = second compound 0.316 µM, first compound 0.000999 µM
[14] = second compound 0.316 µM, first compound 0.00316 µM
[15] = second compound 0.316 µM, first compound 0.00999 µM
[16] = second compound 0.316 µM, first compound 0.0316 µM
[17] = second compound 0.316 µM, first compound 0.0999 µM
[18] = second compound 0.316 µM, first compound 0.316 µM
[19] = second compound 1 µM, first compound 0.000999 µM
[20] = second compound 1 µM, first compound 0.00316 µM
[21] = second compound 1 µM, first compound 0.00999 µM
[22] = second compound 1 µM, first compound 0.0316 µM
[23] = second compound 1 µM, first compound 0.0999 µM
[24] = second compound 1 µM, first compound 0.316 µM
[25] = second compound 3.16 µM, first compound 0.000999 µM
[26] = second compound 3.16 µM, first compound 0.00316 µM
[27] = second compound 3.16 µM, first compound 0.00999 µM
[28] = second compound 3.16 µM, first compound 0.0316 µM
[29] = second compound 3.16 µM, first compound 0.0999 µM
[30] = second compound 3.16 µM, first compound 0.316 µM
[31] = second compound 10 µM, first compound 0.000999 µM
[32] = second compound 10 µM, first compound 0.00316 µM
[33] = second compound 10 µM, first compound 0.00999 µM
[34] = second compound 10 µM, first compound 0.0316 µM
[35] = second compound 10 µM, first compound 0.0999 µM
[36] = second compound 10 µM, first compound 0.316 µM
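Further: spheroids exposed to agents for 7 days before readout.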
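Wherever viability, T/C is given: percent viability relative to DMSO vehicle control taken as 100%.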

In the case of `CC[C@@]1(O)C(=O)OCc2c1cc1n(c2=O)Cc2cc3c(CN(C)C)c(O)ccc3nc2-1` + Cc1cnc(CNC(=O)c2c(=O)c3ccc(N4CCCN(C)CC4)nc3n3c2sc2ccccc23)cn1, the IC50 (second compound 0.0316 µM) is reported as 9.66 nM, the IC50 (second compound 0.1 µM) is reported as < 0.999 nM and the IC50 (second compound 0.316 µM) is reported as < 0.999 nM. For the same compound, the IC50 (second compound 1 µM) was < 0.999 nM, the IC50 (second compound 3.16 µM) was < 0.999 nM and the IC50 (second compound 10 µM) was < 0.999 nM. For the same compound, the viability, T/C [1] was 78.1%, the viability, T/C [2] was 61% and the viability, T/C [3] was 54.5%. The viability, T/C [4] was 33.9%, the viability, T/C [5] was 33.8% and the viability, T/C [6] was 28.5%. The viability, T/C [7] was 29.2%, the viability, T/C [8] was 37.9% and the viability, T/C [9] was 32.2%. The viability, T/C [10] was 31%, the viability, T/C [11] was 28% and the viability, T/C [12] was 23.1%. It also gave a viability, T/C [13] of 24.8%, a viability, T/C [14] of 26.8% and a viability, T/C [15] of 26.9%. The viability, T/C [16] was 25%, the viability, T/C [17] was 26% and the viability, T/C [18] was 20.5%. For the same compound, the viability, T/C [19] was 20.3%, the viability, T/C [20] was 24.9% and the viability, T/C [21] was 24.4%. It also gave a viability, T/C [22] of 22.9%, a viability, T/C [23] of 23.8% and a viability, T/C [24] of 22.6%. It also gave a viability, T/C [25] of 22.5%, a viability, T/C [26] of 21.7% and a viability, T/C [27] of 20.3%. The viability, T/C [28] was 19.2%, the viability, T/C [29] was 20% and the viability, T/C [30] was 16.1%. It also gave a viability, T/C [31] of 0.08%, a viability, T/C [32] of 0.14% and a viability, T/C [33] of 0.19%. For the same compound, the viability, T/C [34] was 0.16%, the viability, T/C [35] was 0.22% and the viability, T/C [36] was 0.17%.

For `CCc1c2c(nc3ccc(O)cc13)-c1cc3c(c(=O)n1C2)COC(=O)[C@]3(O)CC` + Cc1cnc(CNC(=O)c2c(=O)c3ccc(N4CCCN(C)CC4)nc3n3c2sc2ccccc23)cn1, the IC50 (second compound 0.0316 µM) was < 0.999 nM, the IC50 (second compound 0.1 µM) was < 0.999 nM and the IC50 (second compound 0.316 µM) was < 0.999 nM. For the same compound, the IC50 (second compound 1 µM) was < 0.999 nM, the IC50 (second compound 3.16 µM) was < 0.999 nM and the IC50 (second compound 10 µM) was < 0.999 nM. For the same compound, the viability, T/C [1] was 40.3%, the viability, T/C [2] was 25.9% and the viability, T/C [3] was 28.9%. For the same compound, the viability, T/C [4] was 14.1%, the viability, T/C [5] was 8.12% and the viability, T/C [6] was 3.77%. It also gave a viability, T/C [7] of 33.5%, a viability, T/C [8] of 29.6% and a viability, T/C [9] of 18.2%. The viability, T/C [10] was 15.5%, the viability, T/C [11] was 6.99% and the viability, T/C [12] was 2.92%. For the same compound, the viability, T/C [13] was 21.6%, the viability, T/C [14] was 27.2% and the viability, T/C [15] was 22%. For the same compound, the viability, T/C [16] was 14.4%, the viability, T/C [17] was 7.47% and the viability, T/C [18] was 2.52%. It also gave a viability, T/C [19] of 19.5%, a viability, T/C [20] of 25.2% and a viability, T/C [21] of 17.8%. It also gave a viability, T/C [22] of 13.5%, a viability, T/C [23] of 6.88% and a viability, T/C [24] of 0.52%. It also gave a viability, T/C [25] of 20.3%, a viability, T/C [26] of 17.8% and a viability, T/C [27] of 15.5%. For the same compound, the viability, T/C [28] was 10.7%, the viability, T/C [29] was 3.99% and the viability, T/C [30] was 0.15%. The viability, T/C [31] was 0.09%, the viability, T/C [32] was 0.14% and the viability, T/C [33] was 0.17%. For the same compound, the viability, T/C [34] was 0.14%, the viability, T/C [35] was 0.16% and the viability, T/C [36] was 0.16%.
